Reference: PMC13267291, “In vivo functional profiling and structural characterization of the human GLP1R A316T variant” (Science Advances, 2026)

What was measured:
[1] = tested on: hGLP1R^A316T/A316T versus hGLP1R^+/+ mice; experiment: IPGTT after GLP-1RA, HFHS-fed homozygous mice; type: in vivo, mouse; conditions: HFHS diet; 2 nmol/kg ip; acute and 6 hours; n = 9; Fig. 2G-J
Description: (§1) All animal procedures were approved by the British Home Office under the UK animals (Scientific Procedures) Act 1986 (Project License number PP7151519 to A. Martinez-Sanchez, Imperial College London, UK) and from the local ethical committee (Animal Welfare and Ethics Review Board) at the Central Biological Services unit of Imperial College London. Animals were housed in groups of up to four adult mice in individually ventilated cages under controlled conditions at 21° to 23°C with 12-hour:12-hour light-to-dark cycles (lights on at 07:00). Ad libitum access to water and feed was provided unless otherwise stated. Lean mice were fed a standard chow diet [RM1 (E); Special Diet Services]. For HFHS diet studies, animals were put on a 58 kcal % fat and sucrose diet (D12331, Research Diets Inc.) ad libitum for 10 to 14 weeks before experiments.
(§2) To examine acute and prolonged glycemic responses to GLP-1RAs, animals were fasted for 2 hours, starting at 8 a.m. on the morning of the experiments, before IPGTTs. GLP-1RAs were then coadministered at the indicated concentrations with 20% (w/v) D-glucose via intraperitoneal injection at weight-adjusted volumes. Baseline glucose readings were taken via tail venipuncture, and subsequent readings were taken at various time points after glucose ± GLP-1RA administration as for the OGTTs (0-hour acute IPGTTs). […]

[2] = tested on: SNAP/FLAG-hGLP1R^A316T versus ^WT; experiment: Insulin secretion in EndoC-βH3 GLP1R^-/--enriched cells; type: cell-based, human; conditions: 15 mM glucose + 100 nM, 60 min; n = 4; Fig. 6C,D
Description: Purified mouse islets used for insulin secretion assays were treated in 24-well nonadherent plates. Eight islets were used per replicate with three technical replicates per condition. For acute studies, islets were preincubated for 1 hour in KRBH buffer containing 0.1% (w/v) bovine serum albumin (BSA) (10775835001, Roche) and 3 mM glucose before incubation with 11 mM glucose ± 100 nM GLP-1RAs or the GLP-1R antagonist exendin-9 in KRBH buffer in a shaking 37°C water bath (80 rpm) for 1 hour. For overnight studies, preincubation was carried out in RPMI 1640 medium containing FBS, P/S, and 3 mM glucose, followed by treatment with medium supplemented with 11 mM glucose ± GLP-1RAs for 16 hours. […] Insulin secretion assays with the human EndoC-βH3 cell line were performed following 3 weeks of treatment with 4-hydroxytamoxifen as above, followed by transduction with pAV-SNAP/FLAG-hGLP1R^WT or ^A316T adenoviruses, with insulin secretion assessed as previously described ([54]), with the following modifications: After preincubation with 0.5 mM glucose KRBH buffer, cells were stimulated with 15 mM glucose ± exendin-4 for 60 min. Total and secreted insulin samples from islets and cells were stored at −20°C until quantification using an Insulin Ultra-Sensitive HTRF kit (#62IN2PEG, Revvity) in a PHERAstar plate reader (BMG Labtech), according to the manufacturer’s instructions.

[3] = tested on: SNAP/FLAG-hGLP1R^A316T versus ^WT; experiment: Insulin secretion in transduced primary human islets; type: cell-based; conditions: 11 mM glucose + 100 nM; n = 4; Fig. 6G,H
[4] = tested on: hGLP1R^A316T/+ versus hGLP1R^+/+ mice; experiment: IPGTT after GLP-1RA, HFHS-fed heterozygous mice; type: in vivo, mouse; conditions: HFHS diet; 2 nmol/kg; n = 7; fig. S5G,H
Description: as §1, §2

[5] = tested on: hGLP1R^A316T/A316T versus hGLP1R^+/+ mice; experiment: Plasma insulin 10 min into IPGTT, chow-fed mice; type: in vivo, mouse; conditions: chow diet
Description: To measure insulin release during IPGTTs, 10 μl of blood samples were collected via tail venipuncture 10 min after a glucose challenge.
Plasma was collected into potassium EDTA cuvettes (Microvette CB 300, 16.444.100, Starstedt) and stored on ice before centrifugation at 8,000g for 10 min at 4°C to collect plasma supernatants in fresh Eppendorf tubes kept at −80°C until further analysis.

Substance | IPGTT glucose responses, A316T/A316T versus +/+ [1] | Agonist-stimulated insulin secretory fold increases, A316T versus WT [2] | Agonist-induced potentiation of insulin secretion, A316T versus WT [3] | Desensitization 6 hours postagonist, A316T/+ versus +/+ [4] | Plasma insulin increase in response to agonist, hGLP1R^A316T/A316T mice ([5]; 10 min into IPGTT, relative to effect in hGLP1R^+/+, Fig. 1L,M) | Plasma insulin levels in response to agonist, hGLP1R^+/+ mice ([5]; 10 min into IPGTT, versus vehicle, Fig. 1L,M) | Agonist-dependent plasma insulin rises (vehicle fold changes), A316T/A316T versus +/+ ([5]; significant at the 6-hour time point, Fig. 1N)
exendin-F1 | slightly more pronounced desensitization |  |  |  |  |  | 
exendin-4 | slightly more pronounced desensitization | significantly reduced | near-significant loss | significantly increased desensitization | attenuated | increased | reduced
